How the values were obtained:
[1] = system: Splenic CD4 T cell responses (SIV-Gag DD13 epitope); assay: Splenic CD4 T cell responses by ICS after SIV-Gag protein with or without GLA-SE (Example 8); type: in vivo, C57BL/6 mice; conditions: 5 μg SIV-Gag protein + 5 μg GLA-SE vs SE alone or PBS, i.m. d0/d21, day 5 post-boost
Experimental: C57BL/6 mice (4 per group) were immunized intramuscularly via a prime/boost immunization regimen (d0 prime/d21 boost) with 5 μg of recombinant SIV-Gag protein+5 μg of GLA-SE, SE alone, or PBS. Splenic CD4 T cell responses were measured on day 5 post-boost by ICS for IFN-γ, TNF-α, and IL-2 after ex vivo re-stimulation with SIV-Gag CD4 T cell epitope containing peptide DD13 (amino acids 299-311 of SIV-GAG; DRFYKSLRAEQTD; SEQ ID NO: 45)

HSV = conditions: continuous suppressive administration, early intervention; Corey et al. 2004; cited from earlier work

Row | SMILES | Th1 CD4 T cell response after immunization with SIV-Gag recombinant protein [1] | reduction of HSV transmission (HSV)
1 | CCCCCCCCCCCCCC(=O)O[C@H](CCCCCCCCCCC)CC(=O)O[C@@H]1[C@@H](NC(=O)C[C@H](CCCCCCCCCCC)OC(=O)CCCCCCCCCCCCC)[C@H](OC[C@H]2O[C@H](O)[C@H](NC(=O)C[C@H](O)CCCCCCCCCCC)[C@@H](OC(=O)C[C@H](O)CCCCCCCCCCC)[C@@H]2O)O[C@H](CO)[C@H]1OP(=O)(O)O [GLA, glucopyranosyl lipid A] | required for a robust Th1 CD4 T cell response | 
2 | CC(C)[C@H](N)C(=O)OCCOCn1cnc2c(=O)[nH]c(N)nc21 [Valacyclovir] |  | less than 50%

Source: patent US9044420B2, “Immunogenic compositions and methods of using the compositions for inducing humoral and cellular immune responses” (IMMUNE DESIGN CORP., priority 2011, dated 2015)
